Assay [1] addresses T1, human BRD4 bromodomain II (Homo sapiens, UniProt O60885).
T1 construct: human BRD4 bromodomain II [based on Genbank NM_058243, residues 349-460]; host or cells: E. coli
The assay can be described thus: Bromodomain binding assay (AlphaScreen), BRD4 BDII. As to conditions: AlphaScreen assay, Table C2; read-out: BRD4 BDII IC50. An outline of the steps:
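Tagged BRD4 BDI or BDII constructs, expressed in E. coli, competed against a K5/K8/K12/K16-acetylated biotin-H4 peptide. Proximity signal between bead pairs after room-temperature incubations gave concentration-response curves, from which IC50 was derived.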
(Bead proximity is the source of the signal in Alpha formats.)

Assay [2] has as its system human SKM-1 acute myeloid leukemia cells. The assay can be described thus: SKM-1 antiproliferation cell-based assay (ATPlite). The settings on record: Homo sapiens, SKM-1, 96 h, SKM-1 antiproliferation assay, 4 days, Table C2. The procedure, abridged: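 Log-phase cells in RPMI 1640/15% FBS were seeded at 34722 cells/mL and exposed for 4 days to nine-concentration DMSO serial dilutions in triplicate. Viability was read as ATP luminescence (ATPlite 1step), and IC50 values came from variable-slope non-linear regression.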

A word on the IC50: it is the concentration that inhibits the measured activity by half. Usually GI50 stands for the concentration at which growth is held to half of that of the control. A low value points to more potent growth inhibition.

The structures appear in SMILES notation. Where only a bound is given, the exact number is not on record here.

Consider `Cn1ccn(-c2ccc(-c3cc(F)cc(-c4ccc(C(F)(F)F)c(N5CCN(C(C)(C)C)CC5)c4)c3O)cc2Cl)c1=O` [Example 810, 1-(3″-(4-(tert-butyl)piperazin-1-yl)-3-chloro-5′-fluoro-2′-hydroxy-4″-(trifluoromethyl)-[1,1′:3′,1″-terphenyl]-4-yl)-3-methyl-1H-imidazol-2(3H)-one], for which the IC50 in assay [1] was 1 to 10 nM. Also, the 50% growth inhibitory concentration (GI50) in assay [2] lay in the range of 30 to 300 nM.

On to `CC(C)N1CCN(c2cc(-c3cc(F)cc(-c4ccc(-n5ccn(C)c5=O)c(Cl)c4)c3O)ccc2C(F)(F)F)CC1` [Example 811, 1-(3-chloro-5′-fluoro-2′-hydroxy-3″-(4-isopropylpiperazin-1-yl)-4″-(trifluoromethyl)-[1,1′:3′,1″-terphenyl]-4-yl)-3-methyl-1H-imidazol-2(3H)-one], for which, in assay [1], the IC50 is 1 to 10 nM. In assay [2], this compound registered a GI50 of 30 to 300 nM.

Regarding `COc1ncc(-c2cc(F)cc(-c3ccc(-n4ccn(C)c4=O)c(Cl)c3)c2O)cc1N1CC[C@@](C)(O)C1` [Example 812, (R)-1-(3-chloro-5′-fluoro-2′-hydroxy-3′-(5-(3-hydroxy-3-methylpyrrolidin-1-yl)-6-methoxypyridin-3-yl)-[1,1′-biphenyl]-4-yl)-3-methyl-1H-imidazol-2(3H)-one], the IC50 in assay [1] lay within 0.01 to 1 nM. Moreover, the GI50 in assay [2] was in the range of 0.3 to 30 nM.

Consider `Cn1ccn(-c2ccc(-c3cc(F)cc(-c4ccc(C(F)F)c(N5CCN(C(C)(C)C)CC5)c4)c3O)cc2Cl)c1=O` [Example 813, 1-(3″-(4-(tert-butyl)piperazin-1-yl)-3-chloro-4″-(difluoromethyl)-5′-fluoro-2′-hydroxy-[1,1′:3′,1″-terphenyl]-4-yl)-3-methyl-1H-imdiazol-2(3H)-one], for which the IC50 in assay [1] was 0.01 to 1 nM. The concentration for 50% growth inhibition (GI50) in assay [2] was 30 to 300 nM.

In the case of `CC(C)N1CCN(c2cc(-c3cc(F)cc(-c4ccc(-n5ccn(C)c5=O)c(Cl)c4)c3O)ccc2C(F)F)CC1` [Example 814, 1-(3-chloro-4″-(difluoromethyl)-5′-fluoro-2′-hydroxy-3″-(4-isopropylpiperazin-1-yl)-[1,1′:3′,1″-terphenyl]-4-yl)-3-methyl-1H-imidazol-2(3H)-one], in assay [1], the half-inhibitory concentration (IC50) lay in the range of 0.01 to 1 nM. This compound also had a GI50 in assay [2] of 0.3 to 30 nM.

In the case of `Cn1ccn(-c2ccc(-c3cc(F)cc(-c4ccnc(N5CC6(CC6)[C@](C)(O)C5)c4)c3O)cc2Cl)c1=O` [Example 815], the IC50 in assay [1] lay within 0.01 to 1 nM. This compound came in with a GI50 in assay [2] of 0.3 to 30 nM.

Consider `Cn1ccn(-c2ccc(-c3cc(F)cc(-c4ccnc(N5CC6(CC6)[C@@](C)(O)C5)c4)c3O)cc2Cl)c1=O` [Example 816], for which, in assay [1], the IC50 lay within 0.01 to 1 nM. This compound also came in with a GI50 in assay [2] of 0.3 to 30 nM.

Regarding `CSc1ncc(-c2cc(F)cc(-c3ccc(-n4ccn(C)c4=O)c(Cl)c3)c2O)cc1N1CCN(C(C)C)CC1` [Example 817, 1-(3-chloro-5′-fluoro-2′-hydroxy-3′-(5-(4-isopropylpiperazin-1-yl)-6-(methylthio)pyridin-3-yl)-[1,1′-biphenyl]-4-yl)-3-methyl-1H-imidazol-2(3H)-one], the IC50 in assay [1] was 1 to 10 nM. The GI50 in assay [2] lay in the range of 0.3 to 30 nM.

In the case of `CSc1cc(-c2cc(F)cc(-c3cnc(SC)c(N4CCN(C(C)C)CC4)c3)c2O)ccc1-n1ccn(C)c1=O` [Example 818, 1-(5′-fluoro-2′-hydroxy-3′-(5-(4-isopropylpiperazin-1-yl)-6-(methylthio)pyridin-3-yl)-3-(methylthio)-[1,1′-biphenyl]-4-yl)-3-methyl-1H-imidazol-2(3H)-one], the IC50 in assay [1] was above 100 nM. Besides, the GI50 in assay [2] lay within 30 to 300 nM.

As to `CC[C@]1(O)CCN(c2cc(-c3cc(F)cc(-c4ccc(-n5ccn(C)c5=O)c(Cl)c4)c3O)ccn2)C1` [Example 819, (S)-1-(3-chloro-3′-(2-(3-ethyl-3-hydroxypyrrolidin-1-yl)pyridin-4-yl)-5′-fluoro-2′-hydroxy-[1,1′-biphenyl]-4-yl)-3-methyl-1H-imidazol-2(3H)-one], in assay [1], the IC50 lay within 1 to 10 nM. The same compound showed a GI50 in assay [2] of 30 to 300 nM.

These data come from patent US20250179059A1 (The Regents of the University of California, priority 2021, published 2025).
